The values below come from PubChem BioAssay (NCI).

Each structure is given as a SMILES string.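 Grown in 96-well plates, cells were treated for 48 hours with each compound at five concentrations. Insufficient inhibition: endpoint recorded as highest concentration tested. GI50: concentration for 50% inhibition of growth. TGI: total growth inhibition.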

Common to all, as to test: growth of human tumour cells (NCI), 48 h
For assay [1], the system named is LOX IMVI melanoma.
In assay [2] the test system is SK-MEL-28 melanoma.
For assay [3], the system named is UACC-257 melanoma.
For assay [4], the system named is HT29 colon.
In assay [5] the test system is IGROV1 ovarian.
The test system of assay [6] is SNB-19 CNS.
Assay [7] deals with NCI-H226 lung.
In assay [8] the test system is HCT-15 colon.
The test system of assay [9] is MDA-MB-435.
In assay [10] the test system is MCF7 breast.

Take `O=C(Cc1ccccc1)C(c1ccccc1)S(=O)(=O)c1ccccc1` (stereo not given): the TGI in [1], in assay [2], in assay [3], in assay [4], in assay [5] and in [6] was > 100 µM throughout. Moreover, the TGI in [7] and in assay [8] was > 100 µM each time.

For `C=C1C(=O)O[C@H]2[C@H]1CC/C(COC(=O)NCc1c[nH]c3ccc(F)cc13)=C\CC[C@@]1(C)O[C@@H]21`, the GI50 in [1] was 0.952 µM; in [2], 1.63 µM; in assay [9] it was 1.31 µM; in [3] it was 1.69 µM; in [4] it was 1.07 µM; in assay [5] it was 1.54 µM. For the same molecule, the GI50 in assay [6] was 6.56 µM; in [7] it was 1.74 µM; in [8], 1.04 µM. The TGI in [1] turned out to be 2.28 µM; in assay [2] it was 3.24 µM; in assay [9], 3.1 µM; in [3] it was 3.29 µM; in assay [4], 2.58 µM; in [5], 3.34 µM. In addition, the TGI in assay [6] was found to be 20 µM; in assay [7] it was 3.3 µM; in [8], 2.55 µM.

In the case of `CC(C)OC(=O)C1Cc2c([nH]c3ccccc23)C(c2ccccc2)N1` (stereo not given), the TGI in assay [1], in assay [2], in assay [3], in assay [4], in assay [5] and in assay [6] was > 100 µM each time. Also, the TGI in assay [7] and in assay [8] was > 100 µM each time.

Take `COc1cc(/C=C/C(=O)O[C@H]2[C@H](O[C@@H]3O[C@@H](C)[C@H](O)[C@@H](O)[C@H]3O)[C@@H](O)[C@H](OCCc3ccc(O)c(O)c3)O[C@@H]2COC2OCC(O)(CO)C2O)ccc1O` (stereo not given in full): the GI50 in assay [1] is 21.6 µM; in assay [2], > 100 µM; in assay [9], 17.3 µM; in [3] it was > 100 µM; in assay [5] it was > 100 µM; in assay [6], > 100 µM. Also, the GI50 in assay [7] and in [8] was > 100 µM each time. Further, the TGI in assay [1] is 53.6 µM; in assay [2], > 100 µM; in assay [9], 35.2 µM; in assay [3], > 100 µM; in assay [5], > 100 µM; in assay [6], > 100 µM. Further, the TGI in assay [7] and in [8] was > 100 µM each time.

`C/C(=N\NC(=O)C(N)=O)c1c(O)cc(C)oc1=O`: the TGI in assay [1], in [2], in [3], in assay [4], in assay [5] and in [6] was > 100 µM in each case. In addition, the TGI in assay [7] and in assay [8] was > 100 µM in each case.

Regarding `N#CC1C(N)=NNC12Nc1ccccc1S2` (stereo not given), the GI50 in [1] was 18.4 µM; in assay [9] it was 13.9 µM; in assay [3], 13.6 µM; in assay [5] it was 3.22 µM; in [10], 37.5 µM; in assay [6], 28.6 µM. The GI50 in [8] is 15.5 µM. In addition, the TGI in assay [1] is 37.6 µM; in [9], 51.3 µM; in assay [3], 44.4 µM; in [5], 20.6 µM; in [10] it was > 100 µM; in assay [6] it was > 100 µM. The TGI in assay [8] was found to be 64.2 µM.

Regarding `COc1ccc2nc3cc(Cl)ccc3c(N3CCN(c4ccnc(N5CCN(C)CC5)n4)CC3)c2c1`, the GI50 was 1.89 µM in [1]; 1.73 µM in assay [2]; 1.79 µM in assay [9]; 11.4 µM in assay [3]; 1.74 µM in assay [4]; 2.24 µM in assay [5]. Further, the GI50 in assay [6] is 2.23 µM; in [7], 49.6 µM; in [8] it was 1.6 µM. For the same molecule, the TGI in [1] was 3.45 µM; in assay [2], 3.29 µM; in [9], 3.66 µM; in [3], 24.4 µM; in [4], 3.67 µM; in [5] it was 5.08 µM. The TGI is 5.44 µM in [6], > 100 µM in assay [7] and 3.21 µM in [8].

`CC(N)CC(=O)O` (stereo not given): the TGI in assay [2], in assay [3], in [4], in [5], in assay [7] and in [8] was > 5000 µM throughout.

For the molecule `CC1CCC2(C)C(CC=C(C=O)C2(O)C=O)C12CO2` (stereo not given), the TGI worked out at 7.47 µM in assay [1]; 3.97 µM in assay [2]; 3.79 µM in assay [3]; 8.03 µM in [4]; 7.72 µM in assay [5]; 22.5 µM in [6]. Also, the TGI in assay [7] stood at 4.99 µM; in assay [8], 5.95 µM.

Regarding `Cc1cc2c(c(=O)o1)C1=S(SC(c3ccccc3)=C1)S2` (stereo not given), the TGI in assay [1], in assay [2], in assay [3], in assay [4], in assay [5] and in assay [10] was > 100 µM throughout. Moreover, the TGI in [6] and in assay [8] was > 100 µM in each case.

Consider `CCN(Cc1ccc(F)cc1)c1ccc(CO)c(C(F)(F)F)c1`, for which the GI50 in [1] was 17.5 µM; in assay [2], 14.1 µM; in assay [9], 16 µM; in assay [3] it was 1.76 µM; in assay [4] it was 14.3 µM; in assay [5] it was 1.56 µM. Besides, the GI50 in assay [10] is 5.77 µM; in [6] it was 15.3 µM; in [8] it was 14.4 µM. Further, the TGI in assay [1] amounted to 31.3 µM; in [2], 27.1 µM; in [9], 29.4 µM; in [3], 7.01 µM; in [4] it was 31.2 µM; in [5] it was 11.6 µM. For the same molecule, the values for the TGI in [10], in assay [6] and in assay [8] were 19.2 µM, 28.6 µM and 29.4 µM, respectively.
